In patent US20250066864A1, “METHODS FOR IDENTIFYING ADAR1 INHIBITORS, AND COMPOSITIONS AND METHODS OF USE IN TREATING CANCER” (The Wistar Institute of Anatomy and Biology, priority 2021, published 2025):

What was measured:
[1] = target: T1, ADAR (Homo sapiens, UniProt P55265); details: cited from earlier work
T1 sequence (P55265 1-1226): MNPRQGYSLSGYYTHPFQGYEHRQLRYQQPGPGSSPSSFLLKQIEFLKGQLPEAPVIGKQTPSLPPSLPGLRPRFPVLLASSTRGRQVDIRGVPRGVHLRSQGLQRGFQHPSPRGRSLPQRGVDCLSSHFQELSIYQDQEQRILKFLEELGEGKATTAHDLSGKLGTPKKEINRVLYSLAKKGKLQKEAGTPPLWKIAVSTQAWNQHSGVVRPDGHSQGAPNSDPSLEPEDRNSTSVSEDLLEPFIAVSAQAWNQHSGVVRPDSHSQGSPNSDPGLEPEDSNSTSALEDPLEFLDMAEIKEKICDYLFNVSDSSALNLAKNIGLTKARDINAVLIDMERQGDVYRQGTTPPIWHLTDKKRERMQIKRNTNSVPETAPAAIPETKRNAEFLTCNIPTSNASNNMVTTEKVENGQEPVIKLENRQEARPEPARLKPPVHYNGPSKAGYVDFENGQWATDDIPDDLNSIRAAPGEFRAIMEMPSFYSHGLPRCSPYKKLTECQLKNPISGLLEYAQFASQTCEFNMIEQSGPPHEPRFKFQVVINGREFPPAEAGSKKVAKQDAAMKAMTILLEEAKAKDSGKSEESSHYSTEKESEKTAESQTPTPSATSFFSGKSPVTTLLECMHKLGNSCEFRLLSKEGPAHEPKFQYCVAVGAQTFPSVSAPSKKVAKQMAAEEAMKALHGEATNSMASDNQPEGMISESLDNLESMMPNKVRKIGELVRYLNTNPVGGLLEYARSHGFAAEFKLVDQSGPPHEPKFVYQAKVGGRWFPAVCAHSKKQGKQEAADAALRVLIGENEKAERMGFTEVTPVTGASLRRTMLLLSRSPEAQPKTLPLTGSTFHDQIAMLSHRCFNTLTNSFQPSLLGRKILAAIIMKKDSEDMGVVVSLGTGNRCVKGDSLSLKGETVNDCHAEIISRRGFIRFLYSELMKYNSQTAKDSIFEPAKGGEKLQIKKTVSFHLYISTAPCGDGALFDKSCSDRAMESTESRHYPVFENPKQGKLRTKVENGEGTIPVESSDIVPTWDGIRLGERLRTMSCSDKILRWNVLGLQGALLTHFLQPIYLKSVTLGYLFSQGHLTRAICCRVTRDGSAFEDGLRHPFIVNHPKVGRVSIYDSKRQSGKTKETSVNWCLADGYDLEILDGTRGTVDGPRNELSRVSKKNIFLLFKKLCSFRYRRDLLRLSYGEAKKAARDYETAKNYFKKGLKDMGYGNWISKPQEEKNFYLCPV

[2] = test system: HeLa-Nluc-edit cells; assay: Firefly luciferase (FFL) activity in HeLa-Nluc-edit reporter cells (viability/apoptosis); type: cell-based, human; details: FIG. 24C
Method: A HeLa cell line (telomerase positive) permanently transformed with a dual luciferase reporter system (HeLa-Nluc-edit) as described by Fritzell, K. et al (Sensitive ADAR editing reporter in cancer cells enables high-throughput screening of small molecule libraries. Nucleic acids research 47, e22, doi:10.1093/nar/gky1228 (2019), which is incorporated herein by reference) were seeded at a density of 800 cells per well into 384 white plates (PerkinElmer, CulturPlate384, #6007689) in 20 μl of Opti-MEM without phenol red (Thermo Fisher Scientific #11058021) using a multidrop dispenser (Thermo Fisher Scientific) and incubated overnight at 37-C, 5% CO2. The cells were then treated with test compounds (Maybridge HitFinder Diversity Set library) for 72 h prior to luminescence signal detection. Briefly, 10 μl of Steadylite Plus FFL assay system reagents were added and firefly luminescence signal was measured within 10-20 min after the addition using a multiplate reader at 1 s integration time. Firefly luciferase activity was calculated for each well and results for each plate were normalized to a negative (0.1% DMSO) and positive (Doxorubicin 10 microM) control. […]
For the second screen, 10 μl of Steadylite Plus FFL assay system reagents were added and firefly luminescence signal was measured within 10-20 min after the addition using a multiplate reader at 1 s integration time. […]

SMILES	ADAR inhibition [1]	apoptosis detected by reduction of the FFL activity [2]
Nc1ncnc2c1nnn2[C@@H]1O[C@H](CO)[C@@H](O)[C@H]1O [8-azaadenosine]	not ADAR inhibitors	
Nc1ncnc2c1nc(Cl)n2[C@@H]1O[C@H](CO)[C@@H](O)[C@H]1O [8-chloroadenosine]	not ADAR inhibitors	
COc1cccc2c1C(=O)c1c(O)c3c(c(O)c1C2=O)C[C@@](O)(C(=O)CO)C[C@@H]3O[C@H]1C[C@H](N)[C@H](O)[C@H](C)O1 [Doxorubicin]		induces acute apoptosis
